18 compounds from PubChem BioAssay (NCI) can be followed below.

Test in all cases: growth of human tumour cells (NCI), 48 h
Test [1] deals with OVCAR-8 ovarian.
Test [2] relates to DMS 114 small cell lung.
Test [3] relates to KM20L2 colon.
Test [4] has as its system M19-MEL melanoma.
In test [5] the test system is RXF-631 renal.
Test [6] deals with HOP-18 NSCLC.
The test system of test [7] is NCI-H226 lung.
In test [8] the test system is RXF 393 renal.
In test [9] the test system is DMS 273 small cell lung.
Test [10] concerns DLD-1 colon.
Test [11] deals with HCT-116 colon.
Test [12] deals with LXFL 529 NSCLC.
The test system of test [13] is XF 498 CNS.
Test [14] has as its system M14 melanoma.
The test system of test [15] is DU-145 prostate.
Test [16] relates to SNB-78 CNS.

SMILES strings stand for the structures.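 Briefly, cells in 96-well plates were exposed to five compound concentrations for 48 h, and endpoints were estimated by linear interpolation. TGI: concentration producing complete growth inhibition.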

For `C/C=C1/C=CC2c3[nH]c4ccccc4c3CCN2C1` (stereo unspecified), the TGI in test [1] was over 400 µM; in test [2], over 400 µM; in test [3] it was over 400 µM; in test [4], over 400 µM; in [5] it was over 400 µM; in [6], 279 µM. Also, the TGI in [7], in [8], in [9], in test [10], in test [11] and in [12] was over 400 µM each time. The TGI in test [13] is over 400 µM.

Take `Cc1cc(C=O)c2c(=O)c3c(O)ccc(/C=C/C(C)C)c3oc2c1`: the TGI in test [1], in test [2], in test [3], in [4], in [7] and in test [9] was over 100 µM each time. Further, the TGI was over 100 µM in [10], 48.1 µM in [11], over 100 µM in [14] and over 100 µM in test [12].

`CC(=O)Nc1nc2c(=O)c3ccccc3sc2s1`: the TGI in test [1], in [15], in test [7], in test [8], in test [11] and in test [14] was over 100 µM in each case.

As to `COc1ccc(NC(=S)c2ccc([N+](=O)[O-])o2)cc1`, the TGI in test [1] was determined as 13.1 µM; in test [15], 10.2 µM; in [7] it was 8.75 µM; in [8], 5.01 µM; in [11], 3.12 µM; in [14], 7.28 µM.

For `C(=NC12CC3CC(CC(C3)C1)C2)C1CCCCC1`, the TGI in [1], in test [15], in test [7], in test [8], in test [11] and in [14] was over 100 µM throughout.

With `COC(=O)C1CC2CC1C1C2SC(F)(F)C1(F)F` (stereo unspecified), the TGI in test [1], in test [15], in [7], in test [8], in test [11] and in test [14] was over 100 µM throughout.

`N/C(=N\N=C\c1nc2ccccc2o1)c1cnccn1`: the TGI in test [1], in [15], in [7], in [8], in test [11] and in test [14] was over 100 µM throughout.

As for `CO/C(N)=C(\C#N)N=Cc1ccsc1`, the TGI in [1], in test [15], in test [7], in test [8], in test [11] and in test [14] was over 100 µM in each case.

`CC(C)(C)n1c(=O)n2c(-c3ccccc3)c(-c3ccccc3)n2c1=O`: the TGI in test [1], in test [15], in [7], in [8], in test [11] and in test [14] was over 100 µM each time.

`O=c1oc2ccccc2c(-c2ccc(O)cc2)c1Oc1ccccc1`: the TGI was over 31.6 µM in test [1]; over 63.9 µM in [15]; over 75.7 µM in [7]; over 74 µM in test [8]; over 87.9 µM in [11]; 32.1 µM in [14].

With `COc1cc(Nc2cc(Cl)cc(Cl)c2)nc(N)n1`, the TGI in [1] was 39.6 µM; in test [15] it was 48.6 µM; in [7], 42.5 µM; in [8] it was 28.4 µM; in test [11] it was 31 µM; in [14], 42.1 µM.

Take `CC1C(OS(=O)(=O)c2ccc3[nH]c(=S)sc3c2)CC2C3(C)CCC2(C(C)C(=O)O)C(O)C13` (stereo unspecified): the TGI came to 54.6 µM in test [1]; 40.4 µM in [15]; 60.4 µM in test [7]; 61.2 µM in test [8]; 27.3 µM in [11]; 84.1 µM in [14].

Take `CCN(CC)/[N+]([O-])=N/OS(=O)(=O)N(C)C`: the TGI in test [1], in test [15], in test [7], in test [8], in test [11] and in test [14] was over 100 µM throughout.

As to `COc1ccc(OC)c(/C=C2/C(=O)N=C(NC(C)=O)N2C)c1`, the TGI in [1], in test [15], in [7], in test [8], in test [11] and in test [14] was over 100 µM in each case.

Take `COC(=O)c1c(C)cccc1C1CN=NC12Cc1cc(C)c(C)cc1C2=O` (stereo unspecified): the TGI in test [1], in test [15], in test [7], in test [8], in test [11] and in test [14] was over 100 µM each time.

In the case of `Cc1nc2ccc(S(=O)(=O)O)cc2c(=O)n1-c1ccc(C(=O)NN2C(=O)C(Cl)C2c2cccs2)cc1` (stereo unspecified), the TGI in [1] was over 100 µM; in test [15], over 100 µM; in test [7], over 100 µM; in test [8], over 100 µM; in test [11], over 100 µM; in test [14], 41.4 µM.

For the compound `CS(=O)(=O)CCC1CCC(=O)O1` (stereo unspecified), the TGI in test [1], in test [15], in test [7], in test [8], in test [11] and in test [14] was over 100 µM in each case.

As for `CCN(CC)c1ccc(Cl)c2c1C(O)(C(C)C)C2(C)C` (stereo unspecified), the TGI worked out at 33.4 µM in [1]; 36.5 µM in test [2]; 27.8 µM in test [3]; 29.4 µM in [4]; 27.3 µM in [6]; 33.6 µM in test [7]. Moreover, the TGI in [8] came out at 29.7 µM; in test [9] it was 29.5 µM; in test [10], 31.4 µM; in test [11] it was 27 µM; in test [14], 30.5 µM; in test [12], 31.5 µM. In test [16], this compound returned a TGI of 69.4 µM.
